# Measured values from PMC5225203, “Multiparameter toxicity assessment of novel DOPO-derived organophosphorus flame retardants” (Archives of Toxicology, 2016).
# Legend:
# [1] = system: THP-1 monocytes differentiated into macrophages; test: Acute cytotoxicity, MTS reduction, THP-1 macrophages; type: cell-based, human; details: 48 h; for cell damage (viability, MTS reduction): concentrations as high as 400 µM; for concentration producing acute toxicity: MTS
# Procedure: The human monocytic cell line THP-1 (ATCC: TIB-202) was grown as cell suspension in complete cell culture medium under standard growth conditions. Subculturing was performed by replacement of the medium when the cell density reached 8 × 10^5 cells/mL. Cell concentrations were not allowed to exceed 10^6 cells/mL. To differentiate THP-1 monocytes into macrophages, cells were grown in the presence of 200 nM phorbol-12-myristate-13-acetate (PMA; Sigma-Aldrich) for 72 h. For viability assessment, 8 × 10^4 cells per well were seeded in 200 µL complete cell culture medium containing 200 nM PMA in a 96-well plate and differentiated for 72 h under standard growth conditions. Thereafter, the medium was removed, the cells were washed twice with pre-warmed phosphate-buffered saline (PBS), and increasing concentrations of flame retardants or CdSO4 were added in 200 µL complete cell culture medium per well for 48 h. CellTiter96® AQueous One Solution (Promega, Switzerland) containing MTS (3-(4,5-dimethylthiazol-2-yl)-5-(3-carboxymethoxy-phenyl)-2-(4-sulfophenyl)-2H) as a water-soluble tetrazolium compound was used according to the manufacturer’s protocol. Absorption was detected at 490 nm.
# [2] = system: human alveolar epithelial cell line A549; test: Acute cytotoxicity, MTS reduction, A549; type: cell-based; details: A549, 48 h; for cell damage (viability, MTS reduction): concentrations as high as 400 µM; for concentration producing acute toxicity: MTS
# Procedure: The human alveolar epithelial cell line A549 (ATCC: CCL-185) was grown in Roswell Park Memorial Institute (RPMI-1640) medium (Sigma-Aldrich) supplemented with 10 % FCS (Lonza), 2 mM L-glutamine (Gibco), 50 µg/mL penicillin (Gibco), 50 µg/mL streptomycin (Gibco), and 100 µg/mL neomycin (Gibco) at 37 °C in a humidified atmosphere containing 5 % CO2 (hereafter referred to as complete cell culture medium and standard growth conditions, respectively). Cells were subcultured at approximately 80–90 % confluency using 0.5 % trypsin–EDTA (Sigma-Aldrich). For viability assessment, 1.5 × 10^4 cells per well were seeded in 200 µL complete cell culture medium in a 96-well plate and grown overnight under standard growth conditions, after which the cells were treated for 48 h with 200 µL standard growth medium per well containing increasing concentrations of the flame retardants or positive control agent CdSO4. CellTiter96® AQueous One Solution (Promega) containing MTS (3-(4,5-dimethylthiazol-2-yl)-5-(3-carboxymethoxy-phenyl)-2-(4-sulfophenyl)-2H) as a water-soluble tetrazolium compound was used according to the manufacturer’s protocol. Absorption was detected at 490 nm.
# human neural crest cells = test: Neural crest cell (NCC) migration assay; type: cell-based; details: for cell migration / cell viability / concentration range in which migration was far more affected than cell viability: NCC, 24 h
# Procedure: Human embryogenic stem cells (H9 hESC line; Wisconsin International Stem Cell Bank, Madison, WI, USA) were plated on a confluent layer of mitomycin C-treated murine bone marrow-derived stromal MS5 cells and differentiated as previously described (Lee et al. [2010]; Zimmer et al. [2012]). After 21 days, rosettes were picked and plated onto poly-L-ornithine/laminin/fibronectin-coated plates in N2 medium. After 7 days, cells were FACS-sorted for positive expression of the neural crest marker human natural killer-1 (HNK-1) and expanded in N2 medium supplemented with epidermal growth factor (EGF, 20 ng/mL) and fibroblast growth factor (FGF2, 20 ng/mL). For expansion, the cells were passaged every 6 days using accutase (PAA, Pasching, Austria) to detach the cells. After 30 days of expansion, the cells were cryopreserved in 90 % fetal bovine serum, 10 % DMSO. For the analysis of neural crest cell migration, silicone stoppers (Platypus Technologies, Madison, WI, USA) were inserted in a 96-well plate coated with poly-L-ornithine/laminin/fibronectin. Freshly thawed NCCs were seeded at a density of 100,000 cells/cm^2 in N2 medium containing EGF and FGF2 and allowed to attach for 1 day. Stoppers were removed, and the cells were allowed to migrate into the center of the well. Compounds tested in this study were diluted from a 10 mM stock in DMSO and were applied for 24 h. For single cell detection, cells were stained with H-33342 (1 µg/mL) and calcein-AM (0.5 µM) and imaged using a high content imaging microscope (Cellomics ArrayScanVTI, Thermo Fischer). Viability was assessed by counting the number of H-33342 and calcein double-positive cells outside the migration zone. Migration was detected by acquisition of the number of H-33342 and calcein double-positive cells in the migration area.
# [3] = system: human dorsal root ganglia-like cells (hESC-H9 derived peripheral neurons); test: Peripheral neurotoxicity test (PeriTox-test); type: cell-based; details: 48 h
# Procedure: The human pluripotent stem cell (hPSC) line H9 (WA09 line) was obtained from WiCell (Madison, WI, USA). Import of cells and experiments was authorized under license #170-79-1-4-27 (Robert Koch Institute, Berlin, Germany). Cells were cultured according to standard protocols (Thomson et al. [1998]) and differentiated into dorsal root ganglia-like cells as described earlier (Chambers et al. [2012]), with slight modifications. Briefly, neural differentiation was promoted by adding neural differentiation medium and the combination of 6 small molecule pathway inhibitors [noggin (35 ng/mL; R&D Systems, Minneapolis, MN, USA), dorsomorphin (600 nM; Tocris Bioscience, Bristol, UK), […] (10 μM; Tocris Bioscience, Bristol, UK), CHIR99021 (1.5 µM; Axon Medchem, Vienna, VA, USA), SU5402 (1.5 µM; Tocris Bioscience, Bristol, UK), and DAPT (5 µM; Merck, Darmstadt, Germany)]. The cells were cryopreserved on day 8′ of differentiation (DoD 8′). For each experiment, cells were thawed in neural differentiation medium supplemented with CHIR99021 (1.5 µM), SU5402 (1.5 µM), and DAPT (5 µM). For the peripheral neurotoxicity test (PeriTox-test), test chemicals were serially diluted in differentiation medium containing BDNF, GDNF, and NGF (25 ng/mL; R&D Systems, Minneapolis, USA) and added to the cells on day 3 after thawing. After 48 h, neurite area and viability were assessed as described earlier (Krug et al. [2013]). Briefly, cells were loaded with 1 µM calcein-AM and 1 µg/mL H-33342 for 1 h at 37 °C. For image acquisition, an Array-Scan VTI HCS (high content screening) microscope (Cellomics, Waltham, MA USA) was used. In an automated procedure, all H-33342^+/calcein^+ cells were analyzed as viable cells. In channel 1, H-33342^+ nuclei were detected according to their size, area, shape, and intensity at excitation/emission wavelengths of 365 ± 50/535 ± 45. The nuclei borders were expanded radially by 3.2 µm to define a virtual cell soma area (VCSA). In channel 2 (at excitation/emission wavelengths of 474 ± 40/535 ± 45), all calcein^+ pixels were identified as viable cell structures (VCS). An algorithm was applied that used the VCSA as a filter in the calcein channel and subtracted it from the VCS. The remaining pixels (VCS-VCSA) in the calcein channel were defined as neurite area and were represented relative to the untreated control.
# [4] = concentrations as high as 100 µM
SMILES,"cell damage (viability, MTS reduction) [1]","cell damage (viability, MTS reduction) [2]",cell migration (human neural crest cells),cell viability (human neural crest cells),viability of human NCCs (human neural crest cells; [4]),cell viability [3],neurite integrity [3],concentration producing acute toxicity [1],concentration producing acute toxicity [2],concentration range in which migration was far more affected than cell viability (human neural crest cells),NCC migration and NCC viability (human neural crest cells; [4]),concentration moderately affecting neurite mass and reducing cell viability [3]
"Brc1ccc(Oc2cc(Br)c(Br)cc2Br)c(Br)c1 [PBDE-99, reference compound]",no signs of cell damage,no signs of cell damage,"moderately, but significantly, inhibited",did not reduce cell viability,did not reduce the viability,significantly affected,significantly affected,–,–,–,–,–
"O=P1(OCCOP2(=O)Oc3ccccc3-c3ccccc32)Oc2ccccc2-c2ccccc21 (stereo not drawn) [EG-DOPO, 6,6′-(ethane-1,2-diylbis(oxy))bis(6H-dibenzo[c,e][1,2]oxaphosphinine-6-oxide)]",–,–,concentration-dependent declines,concentration-dependent declines,–,significantly affected,significantly affected,> 20 µM,> 20 µM,30 to 60 µM,–,–
"O=[PH]1Oc2ccccc2-c2ccccc21 (stereo not drawn) [DOPO, 9,10-dihydro-9-oxa-10-phosphaphenanthrene-10-oxide]",no signs of cell damage,no signs of cell damage,inhibited neither cell migration,–,–,–,–,–,–,–,influenced neither NCC migration nor NCC viability,> 50 µM
"O=P1(NCCNP2(=O)Oc3ccccc3-c3ccccc32)Oc2ccccc2-c2ccccc21 (stereo not drawn) [EDA-DOPO, 6,6′-(ethane-1,2-diylbis(azanediyl))bis(6H-dibenzo[c,e][1,2]oxaphosphinine-6-oxide)]",no signs of cell damage,no signs of cell damage,inhibited neither cell migration,–,–,–,–,–,–,–,influenced neither NCC migration nor NCC viability,> 50 µM
"O=P1(NCCOP2(=O)Oc3ccccc3-c3ccccc32)Oc2ccccc2-c2ccccc21 (stereo not drawn) [ETA-DOPO, 6-(2-((6-oxido-6H-dibenzo[c,e][1,2]oxaphosphinin-6-yl)amino)ethoxy)-6H-dibenzo[c,e][1,2]oxaphosphinine 6-oxide]",–,–,concentration-dependent declines,concentration-dependent declines,–,–,–,> 20 µM,> 20 µM,30 to 60 µM,–,> 50 µM
